From patent US7601746B2 (Shionogi & Co., Ltd., priority 2003, dated 2009)
pEC50: −log10 of the molar value.

Target: T1, human TPO receptor (hTPOR) (Homo sapiens, UniProt P40238)
T1 construct: expressed in transfected cells; host or cells: BaF-B03 (murine IL-3 dependent cell line)
T1 sequence (P40238 26-635): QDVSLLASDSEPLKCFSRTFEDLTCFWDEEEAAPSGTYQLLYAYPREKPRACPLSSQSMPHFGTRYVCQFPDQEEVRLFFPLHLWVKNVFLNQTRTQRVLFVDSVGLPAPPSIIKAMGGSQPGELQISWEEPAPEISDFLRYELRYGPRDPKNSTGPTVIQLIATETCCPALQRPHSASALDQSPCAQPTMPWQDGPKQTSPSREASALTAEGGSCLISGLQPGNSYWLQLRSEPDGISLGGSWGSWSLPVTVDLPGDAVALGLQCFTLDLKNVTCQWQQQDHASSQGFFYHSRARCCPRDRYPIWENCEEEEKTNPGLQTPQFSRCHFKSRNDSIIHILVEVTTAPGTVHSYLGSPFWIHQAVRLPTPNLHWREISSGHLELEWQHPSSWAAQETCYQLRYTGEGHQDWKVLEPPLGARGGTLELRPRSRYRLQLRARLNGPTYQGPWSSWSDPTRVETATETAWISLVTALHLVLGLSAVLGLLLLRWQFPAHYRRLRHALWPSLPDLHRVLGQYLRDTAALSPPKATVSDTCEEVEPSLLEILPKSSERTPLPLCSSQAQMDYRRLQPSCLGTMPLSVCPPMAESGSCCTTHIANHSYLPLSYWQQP
Assay: Thrombopoietic activity: proliferation of TPO dependent BaF/hTPOR cells (WST-1, absorbance at 450 nm)
Type: cell-based
Details: 20 h + 4 h WST-1, ED50 = half concentration of the concentration showing the maximum thrombopoietic activity
From the text: The TPO dependent BaF/hTPOR cell line which was established by introducing human TPO receptor (hTPOR) into BaF-B03 cells according to Collins et al (J. Cell. Physiol., 137:293-298 (1988)) was used to test the thrombopoietic activity of the present compound. The DNA sequences and encoded peptide sequences for human hTPOR have been described by Vigon et al (Proc. Natl. Acad. Sci. USA, 89:5640-5644 (1992)). TPO dose not have any ability to support proliferation of interlukin-3 dependent parental cell line BaF-B03. BAF/hTPOR cells were maintained in RPMI medium and WEHI-3B conditioned medium as a source of murine interleukin-3 (IL-3). These cells were washed and resuspended in RPMI medium without a source of murine IL-3 and seeded into each well of 96-well microtiter plates at a density of 5×10^4 cells per well in the absence or presence of various concentration of hTPO or the present compound. After incubation at 37° C. for 20 hours in the 5% CO2 incubator, 10% WST-1 reagent (Takara Biomedicals, Japan) was added to each wells and the cells were further incubated for 4 hours. The absorbance at 450 nm was measured. Tables 1 and 2 exemplify the ED50 for tested compounds of the present invention, wherein the ED50 is the half concentration of the concentration showing the maximum thrombopoietic activity.

Question: How did the pEC50 (Table 1) turn out when `COc1c(CCCOCCC(C)C)cccc1-c1csc(NC(=O)c2cc(F)c(/C=C(\C)C(=O)O)c(F)c2)n1` [Compound B1851, (E)-3-[2,6-difluoro-4-(4-{2-methyloxy-3-[3-(3-methylbutyloxy)propyl]phenyl}thiazol-2-ylcarbamoyl)phenyl]-2-methylacrylic acid] was run?
Answer: Its pEC50 is 7.77.

Question: With `CO/C(=C\c1c(Cl)cc(C(=O)Nc2nc(-c3cccc(CCOCCCC(C)C)c3OC)cs2)cc1Cl)C(=O)O` [Compound B1923, (Z)-3-[2,6-dichloro-4-(4-{2-methyloxy-3-[2-(4-methylpentyloxy)ethyl]phenyl}thiazol-2-ylcarbamoyl)phenyl)-2-methyloxyacrylic acid] as the compound, how does the pEC50 (Table 2) read?
Answer: Its pEC50 is 7.70.

Question: `COc1c(CCOCCCC(C)C)cccc1-c1csc(NC(=O)c2cc(Cl)c(/C=C(\C)C(=O)O)c(Cl)c2)n1` [Compound B1922, (E)-3-[2,6-dichloro-4-(4-{2-methyloxy-3-[2-(4-methylpentyloxy)ethyl]phenyl}thiazol-2-ylcarbamoyl)phenyl)-2-methylacrylic acid] was tested. Which pEC50 (Table 1) did it give?
Answer: Its pEC50 is 7.87.

Question: `CCCCCCCC(OC)c1cccc(-c2csc(NC(=O)c3cc(F)c(C=C(C)C(=O)O)c(F)c3)n2)c1F` (centres unmarked) [Compound B25, 3-(2,6-difluoro-4-{4-[2-fluoro-3-(1-methyloxyoctyl)phenyl]thiazol-2-ylcarbamoyl}phenyl)-2-methylacrylic acid] was tested. Which pEC50 (Table 1) did it give?
Answer: The pEC50 was 9.03.

Question: `CCCCOC(CCC)c1cccc(-c2csc(NC(=O)c3cc(F)c(C=C(C)C(=O)O)c(F)c3)n2)c1F` (centres unmarked) [Compound B35, 3-(4-{4-[3-(1-n-butyloxybutyl)-2-fluorophenyl]thiazol-2-ylcarbamoyl}-2,6-difluorophenyl)-2-methylacrylic acid] was tested. Which pEC50 (Table 1) did it give?
Answer: Its pEC50 is 9.11.

Question: How did the pEC50 (Table 1) turn out when `CCC(CC)COCCCc1cccc(-c2csc(NC(=O)c3cc(Cl)c(C=C(C)C(=O)O)c(Cl)c3)n2)c1F` [Compound B88, 3-[2,6-dichloro-4-(4-[3-[3-(2-ethylbutyloxy)propyl]-2-fluorophenyl]thiazol-2-ylcarbamoyl)phenyl]-2-methylacrylic acid] was run?
Answer: Its pEC50 is 8.51.

Question: With `CCCCCOC(c1cccc(-c2csc(NC(=O)c3cc(F)c(C=C(C)C(=O)O)c(F)c3)n2)c1F)C(C)(C)C` (centres unmarked) [Compound B15, 3-(2,6-difluoro-4-{4-[3-(2,2-dimethyl-1-n-pentyloxypropyl)-2-fluorophenyl]thiazol-2-ylcarbamoyl}phenyl)-2-methylacrylic acid] as the compound, how does the pEC50 (Table 1) read?
Answer: The pEC50 was 9.14.

Question: With `CCCCCOC(CCC)c1cccc(-c2csc(NC(=O)c3cc(Cl)c(C=C(C)C(=O)O)c(Cl)c3)n2)c1F` (centres unmarked) [Compound B80, 3-(2,6-dichloro-4-{4-[2-fluoro-3-(1-n-pentyloxybutyl)phenyl]thiazol-2-ylcarbamoyl}phenyl)-2-methylacrylic acid] as the compound, how does the pEC50 (Table 1) read?
Answer: Its pEC50 is 9.15.

Question: With `CCCCOC(CC)c1cccc(-c2csc(NC(=O)c3cc(F)c(C=C(C)C(=O)O)c(F)c3)n2)c1F` (centres unmarked) [Compound B37, 3-(4-{4-[3-(1-n-butyloxypropyl)-2-fluorophenyl]thiazol-2-ylcarbamoyl}-2,6-difluorophenyl)-2-methylacrylic acid] as the compound, how does the pEC50 (Table 1) read?
Answer: Its pEC50 is 9.06.

Question: How did the pEC50 (Table 1) turn out when `COc1c(COCCCC(C)C)cccc1-c1csc(NC(=O)c2cc(F)c(/C=C(\C)C(=O)O)c(F)c2)n1` [Compound B1938] was run?
Answer: The pEC50 was 7.90.

Question: `CCCCOC(C)c1cccc(-c2csc(NC(=O)c3cc(F)c(C=C(C)C(=O)O)c(F)c3)n2)c1F` (centres unmarked) [Compound B50, 3-(4-{4-[3-(1-n-butyloxyethyl)-2-fluorophenyl]thiazol-2-ylcarbamoyl}-2,6-difluorophenyl)-2-methylacrylic acid] was tested. Which pEC50 (Table 1) did it give?
Answer: The pEC50 was 9.10.

Question: `CCCCCC(OC)c1cccc(-c2csc(NC(=O)c3cc(Cl)c(C=C(C)C(=O)O)c(Cl)c3)n2)c1F` (centres unmarked) [Compound B58, 3-(2,6-dichloro-4-{4-[2-fluoro-3-(1-methyloxyhexyl)phenyl]thiazol-2-ylcarbamoyl}phenyl)-2-methylacrylic acid] was tested. Which pEC50 (Table 1) did it give?
Answer: Its pEC50 is 8.82.

Question: `CCCCCOC(CC)c1cccc(-c2csc(NC(=O)c3cc(F)c(C=C(C)C(=O)O)c(F)c3)n2)c1F` (centres unmarked) [Compound B19, 3-(2,6-difluoro-4-{4-[2-fluoro-3-(1-n-pentyloxypropyl)phenyl]thiazol-2-ylcarbamoyl}phenyl)-2-methylacrylic acid] was tested. Which pEC50 (Table 1) did it give?
Answer: The pEC50 was 9.14.

Question: With “3-{2,6-difluoro-4,5-dihydro-4-[6-(3-ethyloxypropyl)naphtho[1,2-d]thiazol-2-ylcabamoyl]phenyl}-2-methylacrylic acid [Compound A8]” as the compound, how does the pEC50 (Table 1) read?
Answer: The pEC50 was 8.54.

Question: How did the pEC50 (Table 2) turn out when `COc1c(CCCOCC(C)C)cccc1-c1csc(NC(=O)c2cc(Cl)c(/C=C(\C)C(=O)O)c(Cl)c2)n1` [Compound B1878, (E)-3-(2,6-dichloro-4-{4-[3-(3-isobuyloxypropyl)-2-methyloxyphenyl]thiazol-2-ylcarbamoyl}phenyl)-2-methylacrylic acid] was run?
Answer: Its pEC50 is 7.67.

Question: How did the pEC50 (Table 1) turn out when `CCCCCOCCc1cccc(-c2csc(NC(=O)c3cc(Cl)c(/C=C(\C)C(=O)O)c(Cl)c3)n2)c1OC` [Compound B1925, (E)-3-(2,6-dichloro-4-{4-[2-methyloxy-3-(2-pentyloxyethyl)phenyl]thiazol-2-ylcarbamoyl)phenyl)-2-methylacrylic acid] was run?
Answer: The pEC50 was 7.73.

Question: With `CCCCCCCCC(OC)c1cccc(-c2csc(NC(=O)c3cc(Cl)c(C=C(C)C(=O)O)c(Cl)c3)n2)c1F` (centres unmarked) [Compound B72, 3-(2,6-dichloro-4-{4-[2-fluoro-3-(1-methyloxynonyl)phenyl]thiazol-2-ylcarbamoyl}phenyl)-2-methylacrylic acid] as the compound, how does the pEC50 (Table 1) read?
Answer: The pEC50 was 9.11.

Question: With `CCCCOC(CC)c1cccc(-c2csc(NC(=O)c3cc(Cl)c(C=C(C)C(=O)O)c(Cl)c3)n2)c1F` (centres unmarked) [Compound B82, 3-(4-{4-[3-(1-n-butyloxypropyl)-2-fluorophenyl]thiazol-2-ylcarbamoyl}-2,6-dichlorophenyl)-2-methylacrylic acid] as the compound, how does the pEC50 (Table 1) read?
Answer: The pEC50 was 8.97.

Question: How did the pEC50 (Table 1) turn out when `CCC(OCCC(C)C)c1cccc(-c2csc(NC(=O)c3cc(Cl)c(C=C(C)C(=O)O)c(Cl)c3)n2)c1F` (centres unmarked) [Compound B74, 3-[2,6-dichloro-4-(4-{2-fluoro-3-[1-(3-methylbutyloxy)proptyl]phenyl}thiazol-2-ylcarbamoyl)phenyl]-2-methylacrylic acid] was run?
Answer: Its pEC50 is 9.10.

Question: `CO/C(=C\c1c(Cl)cc(C(=O)Nc2nc(-c3cccc(COCCCC(C)C)c3OC)cs2)cc1Cl)C(=O)O` [Compound B1941] was tested. Which pEC50 (Table 2) did it give?
Answer: Its pEC50 is 7.62.

Question: With `C/C(=C\c1c(Cl)cc(C(=O)Nc2nc3c(s2)COc2c(CCC(C)(C)C)cccc2-3)cc1Cl)C(=O)O` [Compound A1317, (E)-3-{2,6-dichloro-4-[6-(3,3-dimethylbutyl)-4H-chromeno[4,3-d]thiazol-2-ylcabamoyl]phenyl}-2-methylacrylic acid] as the compound, how does the pEC50 (Table 1) read?
Answer: Its pEC50 is 7.82.

Question: How did the pEC50 (Table 1) turn out when `CCCOCCCC(OC)c1cccc(-c2csc(NC(=O)c3cc(F)c(/C=C(\C)C(=O)O)c(F)c3)n2)c1OC` (centres unmarked) [Compound B1799, (E)-3-(2,6-difluoro-4-{4-[2-methyloxy-3-(1-methyloxy-4-propyloxybutyl)phenyl]thiazol-2-ylcarbamoyl}phenyl)-2-methylacrylic acid] was run?
Answer: Its pEC50 is 7.76.

Question: With `CCCCCCOCCCc1cccc(-c2csc(NC(=O)c3cc(F)c(/C=C(\C)C(=O)O)c(F)c3)n2)c1OC` [Compound B505, (E)-3-(2,6-difluoro-4-{4-[3-(3-hexyloxypropyl)-2-methyloxyphenyl]thiazol-2-ylcarbamoyl}phenyl)-2-methylacrylic acid] as the compound, how does the pEC50 (Table 1) read?
Answer: Its pEC50 is 7.92.

Question: With `CO/C(=C\c1c(F)cc(C(=O)Nc2nc(-c3cccc(C(OC)C(C)(C)C)c3F)c(OC)s2)cc1F)C(=O)O` (centres unmarked) [Compound B1908, (Z)-3-(2,6-difluoro-4-{4-[2-fluoro-3-(1-methyloxy-2,2-dimethylpropyl)phenyl]-5-methyloxythiazol-2-ylcarbamoyl}phenyl)-2-methyloxyacrylic acid] as the compound, how does the pEC50 (Table 2) read?
Answer: The pEC50 was 7.58.

Question: With `CCCCCCCCCC(OC)c1cccc(-c2csc(NC(=O)c3cc(Cl)c(/C=C(\OC)C(=O)O)c(Cl)c3)n2)c1OC` (centres unmarked) [Compound B1437, (Z)-3-(2,6-dichloro-4-{4-[2-methyloxy-3-(1-methyloxydecyl)phenyl]thiazol-2-ylcarbamoyl}phenyl)-2-methyloxyacrylic acid] as the compound, how does the pEC50 (Table 1) read?
Answer: The pEC50 was 8.19.

Question: `CCCC(CCc1cccc2c1CCc1sc(NC(=O)c3cc(F)c(C=C(C)C(=O)O)c(F)c3)nc1-2)OC` (centres unmarked) [Compound A1, 3-{2,6-difluoro-4-[4,5-dihydro-6-(3-methyloxyhexyl)naphtho[1,2-d]thiazol-2-ylcarbamoyl]phenyl}-2-methylacrylic acid] was tested. Which pEC50 (Table 1) did it give?
Answer: The pEC50 was 8.64.
